Consider eleven compounds from patent US8415351B2 (priority 2007, dated 2013).

Test [1] has as its system genotype 1a-H77 subgenomic replicon cell line. Briefly: microbe, parasite or virus in culture. It counts as cell-based, HCV. As to conditions: Hepatitis C virus, read-out: EC50 1a.
Test [2] concerns genotype 1b-Con1 subgenomic replicon cell line. In words: microbe, parasite or virus in culture. The test is classed as cell-based, HCV. As to conditions: Hepatitis C virus, read-out: EC50 1b.

Where only a bound is given, the exact number is not on record here.

On to `COc1c(C=C(F)c2ccc(NS(C)(=O)=O)cc2)cc(N2CCC(=O)NC2=O)cc1C(C)(C)C` (racemic) [IA-L1-1.21, N-(4-(2-(3-tert-butyl-5-(2,4-dioxotetrahydropyrimidin-1(2H)-yl)-2-methoxyphenyl)-1-fluorovinyl)phenyl)methanesulfonamide], for which the EC50 in test [1] and in test [2] was below 10 nM throughout. As to `COc1c(-c2nc3cc(NS(C)(=O)=O)ccc3[nH]2)cc(N2CCC(=O)NC2=O)cc1C(C)(C)C` [IA-L0-2.1, N-(2-(3-tert-butyl-5-(2,4-dioxotetrahydropyrimidin-1(2H)-yl)-2-methoxyphenyl)-1H-benzo[d]imidazol-5-yl)methanesulfonamide], the EC50 in test [1] and in test [2] was above 1000 nM in each case. Turning to `COc1c(-c2nc3ccc(NS(C)(=O)=O)cc3s2)cc(N2CCC(=O)NC2=O)cc1C(C)(C)C` [IA-L0-2.2, N-(2-(3-tert-butyl-5-(2,4-dioxotetrahydropyrimidin-1(2H)-yl)-2-methoxyphenyl)benzo[d]thiazol-6-yl)methanesulfonamide], the half-maximal effective concentration (EC50) was in the range of 100 to 1000 nM in test [1] and 10 to 100 nM in test [2]. Turning to `COc1c(-c2nc3ccccc3s2)cc(N2CCC(=O)NC2=O)cc1C(C)(C)C` [IA-L0-2.3, 1-(3-(benzo[d]thiazol-2-yl)-5-tert-butyl-4-methoxyphenyl)dihydro pyrimidine-2,4(1H,3H)-dione], the EC50 in test [1] and in test [2] was 100 to 1000 nM each time.

Turning to `COc1c(-c2nc3cc(NS(C)(=O)=O)ccc3s2)cc(N2CCC(=O)NC2=O)cc1C(C)(C)C` [IA-L0-2.4, N-(2-(3-tert-butyl-5-(2,4-dioxotetrahydropyrimidin-1(2H)-yl)-2-methoxyphenyl)benzo[d]thiazol-5-yl)methanesulfonamide], the concentration for a half-maximal effect (EC50) in test [1] is above 1000 nM; in test [2], 100 to 1000 nM. Consider `COc1c(-c2nc3ccc(NS(C)(=O)=O)cc3o2)cc(N2CCC(=O)NC2=O)cc1C(C)(C)C` [IA-L0-2.5, N-(2-(3-tert-butyl-5-(2,4-dioxotetrahydropyrimidin-1(2H)-yl)-2-methoxyphenyl)benzo[d]oxazol-6-yl)methanesulfonamide], for which the EC50 in test [1] and in test [2] was above 1000 nM throughout. As to `COc1c(-c2nc3ccc([N+](=O)[O-])cc3o2)cc(N2CCC(=O)NC2=O)cc1C(C)(C)C` [IA-L0-2.6, 1-(3-tert-butyl-4-methoxy-5-(6-nitrobenzo[d]oxazol-2-yl)phenyl) dihydropyrimidine-2,4(1H,3H)-dione], the EC50 in test [1] and in test [2] was above 1000 nM throughout. On to `COc1c(-c2nc3cc([N+](=O)[O-])ccc3o2)cc(N2CCC(=O)NC2=O)cc1C(C)(C)C` [IA-L0-2.7, 1-(3-tert-butyl-4-methoxy-5-(5-nitrobenzo[d]oxazol-2-yl)phenyl) dihydropyrimidine-2,4(1H,3H)-dione], for which the concentration for a half-maximal effect (EC50) in test [1] was above 1000 nM; in test [2], 100 to 1000 nM. Regarding `COc1c(-c2ccc3c(c2)CC/C3=N\NS(C)(=O)=O)cc(-n2ccc(=O)[nH]c2=O)cc1C(C)(C)C` [IB-L0-2.4, (E)-N′-(5-(3-tert-butyl-5-(2,4-dioxo-3,4-dihydropyrimidin-1(2H)-yl)-2-methoxyphenyl)-2,3-dihydro-1H-inden-1-ylidene)methanesulfonohydrazide], the EC50 in test [2] was below 10 nM. Take `CC(C)(C)c1cc(-c2ccc3cc(NS(C)(=O)=O)ccc3c2)cc(-n2ccc(=O)[nH]c2=O)c1` [IB-L0-2.8, N-(6-(3-tert-butyl-5-(2,4-dioxo-3,4-dihydropyrimidin-1(2H)-yl)phenyl)naphthalen-2-yl)methanesulfonamide]: the concentration for a half-maximal effect (EC50) in test [2] lay within 10 to 100 nM. For `COc1c(/C=C/c2ccc(NS(C)(=O)=O)cc2)cc(-n2cc(F)c(=O)[nH]c2=O)cc1C(C)(C)C` [IB-L1-1.2, (E)-N-(4-(3-tert-butyl-5-(5-fluoro-2,4-dioxo-3,4-dihydro-pyrimidin-1(2H)-yl)-2-methoxystyryl)phenyl)methanesulfonamide], the EC50 in test [2] was 10 to 100 nM.
